Usually IC50 stands for the concentration needed to halve the response being measured.

The values that follow come from paper PMC11314063, “Inhibition of DNA Topoisomerase Ι by Flavonoids and Polyacetylenes Isolated from Bidens pilosa L” (Molecules, 2024).

The test system of one series is A549. The experiment in a line: SRB cytotoxicity assay, A549. As to conditions: Homo sapiens, A549; SRB assay, 48 h, mean ± SD; read-out: IC50 Cytotoxicity A549. Format: cell-based. (In general: In SRB staining, fixed cells bind dye roughly in proportion to their protein.)
For the next series, the system named is HCT116. The experiment in a line: SRB cytotoxicity assay, HCT116. It is filed as cell-based. The settings on record: Homo sapiens, HCT-116; SRB assay, 48 h, mean ± SD; read-out: IC50 Cytotoxicity HCT116.
Another series has as its system MDA-MB-231. The series can be described thus: SRB cytotoxicity assay, MDA-MB-231. It is filed as cell-based. As to conditions: Homo sapiens, MDA-MB-231; SRB assay, 48 h, mean ± SD; read-out: IC50 Cytotoxicity MDA-MB-231.
In the next series the test system is HepG2. The series can be described thus: SRB cytotoxicity assay, HepG2. It is filed as cell-based. As to conditions: Homo sapiens, HepG2; SRB assay, 48 h, mean ± SD; read-out: IC50 Cytotoxicity HepG2.
The next series concerns DLD-1. The series can be described thus: SRB cytotoxicity assay, DLD-1. Format: cell-based. The settings on record: Homo sapiens, DLD-1; SRB assay, 48 h, mean ± SD; read-out: IC50 Cytotoxicity DLD-1.
The nature of series [1]: SRB cytotoxicity assay, hepatocyte HL-7702. Format: cell-based, human. The settings on record: HL-7702 hepatocyte cell line; SRB assay, 48 h, human hepatocyte, mean ± SD; read-out: IC50 Cytotoxicity HL-7702.
For the next series, the target named is T1, DNA Topo I (Homo sapiens, UniProt P11387).
T1 construct: purchased ThermoFisher, Waltham, MA, USA
T1 sequence (P11387 1-765): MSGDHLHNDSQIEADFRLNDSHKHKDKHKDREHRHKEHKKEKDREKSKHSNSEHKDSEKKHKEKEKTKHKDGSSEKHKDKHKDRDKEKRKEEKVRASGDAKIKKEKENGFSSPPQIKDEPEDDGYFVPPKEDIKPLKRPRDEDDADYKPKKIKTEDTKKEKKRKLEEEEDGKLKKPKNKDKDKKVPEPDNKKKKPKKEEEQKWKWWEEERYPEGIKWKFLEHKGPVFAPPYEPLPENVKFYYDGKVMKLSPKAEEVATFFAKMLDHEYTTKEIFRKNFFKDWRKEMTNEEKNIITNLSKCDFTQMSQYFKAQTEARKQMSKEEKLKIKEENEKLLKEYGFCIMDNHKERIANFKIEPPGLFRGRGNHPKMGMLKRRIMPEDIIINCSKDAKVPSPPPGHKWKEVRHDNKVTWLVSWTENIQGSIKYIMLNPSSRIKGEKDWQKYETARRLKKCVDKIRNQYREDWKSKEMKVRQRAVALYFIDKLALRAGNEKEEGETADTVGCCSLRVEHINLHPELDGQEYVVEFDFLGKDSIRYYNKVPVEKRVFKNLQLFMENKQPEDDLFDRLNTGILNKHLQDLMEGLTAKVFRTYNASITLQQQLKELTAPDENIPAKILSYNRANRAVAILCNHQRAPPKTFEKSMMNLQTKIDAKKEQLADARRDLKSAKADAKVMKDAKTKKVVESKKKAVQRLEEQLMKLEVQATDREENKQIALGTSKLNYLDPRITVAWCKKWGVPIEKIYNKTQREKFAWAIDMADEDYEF
The experiment in a line: Topo I inhibition assay (DNA relaxation assay). Format: biochemical. As to conditions: DNA relaxation assay, pBR322, mean ± SD. The procedure, abridged:
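Compounds were preincubated 10 min at room temperature with 0.2 U human Topo I in pH 7.5 Tris buffer with MgCl2 and KCl. Supercoiled pBR322 (500 ng) was then relaxed for 30 min at 37 °C.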

Series [2] deals with DLD-1 cells. The experiment in a line: DNA content analysis (cell cycle, flow cytometry) in DLD-1. The settings on record: 24 h. Format: cell-based, human. The method, then:
(§1) Cells were seeded in 6-well plates and allowed to adhere for 24 h at 37 °C. After treatment with different concentrations of the samples for another 24 h, the cells were harvested and washed with PBS, and then, the DNA content analysis was conducted with a cell cycle staining kit (Multi sciences, Hangzhou, China), according to the manufacturer’s instructions. The fluorescence intensity of the cells was measured by flow cytometry (Beckman CytoFlex, Miami, FL, USA).
Background: A flow cytometer gives signals particle by particle.

In series [3] the test system is DLD-1 cells. The experiment in a line: Western blot of cell cycle-related proteins in DLD-1. Format: cell-based, human. The settings on record: 24 h. As to the method: Cells treated with the compounds were harvested, and the total protein was isolated with lysis buffer (72 mM Tris pH 6.8, 2% SDS, 10% glycerol, and 0.1% bromophenol blue). The proteins were subjected to SDS-PAGE and transferred to a 0.45 μm PVDF membrane (Millipore, Burlington, USA). After being blocked with 5% non-fat milk in TBST, the membranes were washed and then incubated with specific primary antibodies (Cdk2 and Cdk6 were purchased from BBI Life Sciences Corporation, Shanghai, China; cyclin A, cyclin B, cyclin D, cyclin E, Cdk1, and Cdk4 were purchased from Proteintech, Rosemont, IL, USA) in TBST containing 2% non-fat milk overnight at 4 °C. After washing, the membranes were incubated with secondary horseradish peroxidase (HRP)-conjugated antibodies at room temperature for 1 h. The blot was visualized using an enhanced chemiluminescence assay kit (Meilunbio, Dalian, China) under a chemiluminescence detector (Tanon, Shanghai, China). The band density of the blot was quantified by the ImageJ software with at least three independent experiments.
A general note: A western blot detects proteins with antibodies after separation by electrophoresis.

The test system of the next series is HCT116 cells. The series can be described thus: DNA content analysis (cell cycle, flow cytometry) in HCT116. It is filed as cell-based, human. The settings on record: 24 h. The method, then:
as §1
Figure S21 Results of flavonoid 5 induced cell cycle arrests in HCT116 cells. A)
Representative images of flow-cytometry analysis of DNA content; B) Statistic analysis
of cells in G1, S, and G2/M phase after treated with 5. After treatment with 2 and 1 μM
compounds 5 for 24 h, the percentages of cell population in the G2/M phase
respectively, which meant a potent G2/M cell cycle arrest caused by the treatment (P<
0.0001). In addition, after treatment with 0.5 μM compounds 5 for 24 h, the percentages
that an apparent G1 or S phase arrest was induced after the treatment with a lower
different from the vehicle control. Data are expressed as mean ± SD values from three
(1 picture or pasted object on this page, not shown here)

Take `COc1ccc(-c2oc3cc(O)c(OC)c(O)c3c(=O)c2OC)cc1O` [Compound 5]: the IC50 turned out to be 2.16 ± 0.3 µM in the series on A549; 0.79 ± 0.13 µM with HCT116; 39.7 ± 4.58 µM with MDA-MB-231; 40.3 ± 11.1 µM in the series with HepG2; 0.6 ± 0.05 µM in the series with DLD-1; 146 ± 7.88 µM against DNA Topo I. The half-maximal inhibitory concentration (IC50) at 48 h in [1] came to 14.4 ± 0.45 µM. Also, the “percentage of cells in the G1/S phase” value is 85.30% with DLD-1 cells [2] (DLD-1, 0.5 μM); 76.83% with DLD-1 cells [2] (DLD-1, 1 μM); 91.23% in the series on HCT116 cells (HCT116, 0.5 μM). Besides, the “percentage of cell population in the G2/M phase” value in the series on DLD-1 cells [2] (DLD-1, 2 μM) was found to be 86.05%; in the series on HCT116 cells (HCT116, 1 μM) it was 81.84%; in the series with HCT116 cells (HCT116, 2 μM), 89.72%. In addition, in the series on DLD-1 cells [2] (DLD-1, 2 μM), the “percentage of cells in the G1/S (combined) phase” value is 13.46%. The “expression levels of cyclin A, cyclin B, and CDK6” value in the series on DLD-1 cells [3] (DLD-1, 2 μM) is “potently decreased”. Also, the “expression of cylcin D, cyclin E, and CDK6” value in the series with DLD-1 cells [3] (DLD-1, 1 and 0.5 μM) is recorded as “potent downregulation”. The “percentage of cells in G1/S (combined) phase” value in the series with HCT116 cells (HCT116, 1 μM) is recorded as 18.13%; in the series on HCT116 cells (HCT116, 2 μM), 10.16%.
